# Reference: publication PMC5218480 (PLoS ONE, 2017)
# Test system: MV-4-11 cells
# Experiment: Gene expression microarray analysis (Affymetrix PrimeView) and GSEA
# Assay type: cell-based, human
# Parameters: RFU PODN (11730768_x_at) / Fold change /veh PODN (11730768_x_at) / RFU LINC00158 (11744669_a_at) / Fold change /veh LINC00158 (11744669_a_at) / RFU DUSP10 (11751237_a_at) / Fold change /veh DUSP10 (11751237_a_at) / RFU ID3 (11757404_x_at) / Fold change /veh ID3 (11757404_x_at) / RFU PLEKHG5 (11737974_s_at) / Fold change /veh PLEKHG5 (11737974_s_at) / RFU LRRC4B (11730491_at) / Fold change /veh LRRC4B (11730491_at) / RFU GIMAP4 (11747438_a_at) / Fold change /veh GIMAP4 (11747438_a_at) / RFU KRT8 (11758183_x_at) / Fold change /veh KRT8 (11758183_x_at) / RFU CNN1 (11734310_a_at) / Fold change /veh CNN1 (11734310_a_at) / RFU VPS37D (11726825_at) / Fold change /veh VPS37D (11726825_at) / RFU C10orf10 (11716522_x_at) / Fold change /veh C10orf10 (11716522_x_at) / RFU KIR2DL2 /// KIR2DL4 /// KIR2DL5A /// KIR2DL5B /// KIR2DS1 /// KIR2DS2 /// KIR2DS3 /// KIR2DS4 /// KIR3DL3 /// KIR3DL3 /// KIR3DS1 (11738374_at) / Fold change /veh KIR2DL2 /// KIR2DL4 /// KIR2DL5A /// KIR2DL5B /// KIR2DS1 /// KIR2DS2 /// KIR2DS3 /// KIR2DS4 /// KIR3DL3 /// KIR3DL3 /// KIR3DS1 (11738374_at) / RFU C1QL1 (11718748_at) / Fold change /veh C1QL1 (11718748_at) / RFU TMPRSS4 (11747572_a_at) / Fold change /veh TMPRSS4 (11747572_a_at) / RFU HAMP (11756126_x_at) / Fold change /veh HAMP (11756126_x_at) / RFU RNFT2 (11725882_a_at) / Fold change /veh RNFT2 (11725882_a_at) / RFU NR4A2 (11747474_a_at) / Fold change /veh NR4A2 (11747474_a_at) / RFU ABCC12 (11746883_a_at) / Fold change /veh ABCC12 (11746883_a_at) / RFU TMEM136 (11760407_x_at) / Fold change /veh TMEM136 (11760407_x_at) / RFU CLDN22 /// WWC2 (11732394_at) / Fold change /veh CLDN22 /// WWC2 (11732394_at) / RFU HLA-DPB1 (11760878_x_at) / Fold change /veh HLA-DPB1 (11760878_x_at) / RFU SPINT1 (11716480_a_at) / Fold change /veh SPINT1 (11716480_a_at) / RFU GAP43 (11754022_s_at) / Fold change /veh GAP43 (11754022_s_at) / RFU A4GNT (11735810_at) / Fold change /veh A4GNT (11735810_at) / RFU PRB3 (11715151_x_at) / Fold change /veh PRB3 (11715151_x_at) / RFU TUBB4B (11761932_at) / Fold change /veh TUBB4B (11761932_at) / RFU CAPN14 (11732068_a_at) / Fold change /veh CAPN14 (11732068_a_at) / RFU TMCC2 (11721928_a_at) / Fold change /veh TMCC2 (11721928_a_at) / RFU IRGQ (11745062_a_at) / Fold change /veh IRGQ (11745062_a_at) / RFU FAM174B (11720279_a_at) / Fold change /veh FAM174B (11720279_a_at) / RFU TMPRSS4 (11748680_a_at) / Fold change /veh TMPRSS4 (11748680_a_at) / RFU FAM212B (11763350_a_at) / Fold change /veh FAM212B (11763350_a_at) / RFU PLEKHG5 (11743358_a_at) / Fold change /veh PLEKHG5 (11743358_a_at) / RFU ZSCAN30 (11745921_a_at) / Fold change /veh ZSCAN30 (11745921_a_at) / RFU CMKLR1 (11741424_a_at) / Fold change /veh CMKLR1 (11741424_a_at) / RFU LOC101060620 /// MAPK8IP1 (11723275_at) / Fold change /veh LOC101060620 /// MAPK8IP1 (11723275_at) / RFU SPTSSB (11747773_x_at) / Fold change /veh SPTSSB (11747773_x_at) / RFU PRSS12 (11739890_at) / Fold change /veh PRSS12 (11739890_at) / RFU BIN1 (11741810_x_at) / Fold change /veh BIN1 (11741810_x_at) / RFU WNT11 (11732464_a_at) / Fold change /veh WNT11 (11732464_a_at) / RFU C10orf10 (11716521_a_at) / Fold change /veh C10orf10 (11716521_a_at) / RFU C5orf56 (11738089_at) / Fold change /veh C5orf56 (11738089_at) / RFU CYB561 (11721691_x_at) / Fold change /veh CYB561 (11721691_x_at) / RFU ANKRD19P (11752326_a_at) / Fold change /veh ANKRD19P (11752326_a_at) / RFU OR2T12 /// OR2T33 /// OR2T8 (11738714_s_at) / Fold change /veh OR2T12 /// OR2T33 /// OR2T8 (11738714_s_at) / RFU VCAN (11748164_a_at) / Fold change /veh VCAN (11748164_a_at) / RFU JSRP1 (11732532_at) / Fold change /veh JSRP1 (11732532_at) / RFU KRTAP10-11 (11738290_x_at) / Fold change /veh KRTAP10-11 (11738290_x_at) / RFU MYO3A (11730013_a_at) / Fold change /veh MYO3A (11730013_a_at) / RFU EBF3 (11725865_a_at) / Fold change /veh EBF3 (11725865_a_at) / RFU CAMK2N1 (11719241_x_at) / Fold change /veh CAMK2N1 (11719241_x_at) / RFU C5orf56 (11738088_a_at) / Fold change /veh C5orf56 (11738088_a_at) / RFU OLFML3 (11715873_a_at) / Fold change /veh OLFML3 (11715873_a_at) / RFU LOC100653217 /// NTM (11731650_a_at) / Fold change /veh LOC100653217 /// NTM (11731650_a_at) / RFU MAPK11 (11762145_a_at) / Fold change /veh MAPK11 (11762145_a_at) / RFU FIZ1 (11724087_x_at) / Fold change /veh FIZ1 (11724087_x_at) / RFU OASL (11726364_x_at) / Fold change /veh OASL (11726364_x_at) / RFU SOX15 (11748057_x_at) / Fold change /veh SOX15 (11748057_x_at) / RFU CD79A (11719716_a_at) / Fold change /veh CD79A (11719716_a_at) / RFU HIST1H1D (11736915_at) / Fold change /veh HIST1H1D (11736915_at) / RFU CASKIN2 (11723855_a_at) / Fold change /veh CASKIN2 (11723855_a_at) / RFU LOC730098 (11760151_x_at) / Fold change /veh LOC730098 (11760151_x_at) / RFU OR4N2 (11742367_at) / Fold change /veh OR4N2 (11742367_at) / RFU PRRT2 (11749266_a_at) / Fold change /veh PRRT2 (11749266_a_at) / RFU SNX32 (11753110_a_at) / Fold change /veh SNX32 (11753110_a_at) / RFU CDHR5 (11726645_a_at) / Fold change /veh CDHR5 (11726645_a_at) / RFU RCAN1 (11760418_a_at) / Fold change /veh RCAN1 (11760418_a_at) / RFU FAM167A (11723789_a_at) / Fold change /veh FAM167A (11723789_a_at) / RFU FAM26E (11764081_at) / Fold change /veh FAM26E (11764081_at) / RFU ISYNA1 (11749810_s_at) / Fold change /veh ISYNA1 (11749810_s_at) / RFU ACY1 (11761880_at) / Fold change /veh ACY1 (11761880_at) / RFU 11764098_at / Fold change /veh 11764098_at / RFU SAMD14 (11745864_x_at) / Fold change /veh SAMD14 (11745864_x_at) / RFU NPB (11741838_a_at) / Fold change /veh NPB (11741838_a_at) / RFU TMPRSS6 (11731388_a_at) / Fold change /veh TMPRSS6 (11731388_a_at) / RFU KRTAP10-2 (11738614_at) / Fold change /veh KRTAP10-2 (11738614_at) / RFU ARHGAP8 /// PRR5-ARHGAP8 (11727945_x_at) / Fold change /veh ARHGAP8 /// PRR5-ARHGAP8 (11727945_x_at) / RFU KRTAP5-7 /// NADSYN1 (11734609_at) / Fold change /veh KRTAP5-7 /// NADSYN1 (11734609_at) / RFU RASL12 (11751679_a_at) / Fold change /veh RASL12 (11751679_a_at) / RFU CDKN2B (11736163_a_at) / Fold change /veh CDKN2B (11736163_a_at) / RFU PRF1 (11729649_at) / Fold change /veh PRF1 (11729649_at) / RFU, ZNF638 /// ZNF638-IT1 / Fold change vs veh, ZNF638 /// ZNF638-IT1 / RFU, PANK3 / Fold change vs veh, PANK3 / RFU, SH3YL1 / Fold change vs veh, SH3YL1 / RFU, ZEB2 / Fold change vs veh, ZEB2 / RFU, NRIP1 / Fold change vs veh, NRIP1 / RFU, PTTG1IP / Fold change vs veh, PTTG1IP / RFU, CAPN2 / Fold change vs veh, CAPN2 / RFU, MED14 / Fold change vs veh, MED14 / RFU, SNORA58 / Fold change vs veh, SNORA58 / RFU, C1orf63 / Fold change vs veh, C1orf63 / RFU, LRRFIP1 / Fold change vs veh, LRRFIP1 / RFU, NDUFAF7 / Fold change vs veh, NDUFAF7 / RFU, SLC12A2 / Fold change vs veh, SLC12A2 / RFU, IBTK / Fold change vs veh, IBTK / RFU, ESF1 / Fold change vs veh, ESF1 / Fold change vs veh, TMEM50B / RFU, TAOK1 / Fold change vs veh, TAOK1 / RFU, ACBD3 / Fold change vs veh, ACBD3 / RFU, TMA16 / Fold change vs veh, TMA16 / RFU, RWDD3 / Fold change vs veh, RWDD3 / RFU, BCAT1 / Fold change vs veh, BCAT1 / RFU, EDEM3 / Fold change vs veh, EDEM3 / RFU, TMEM33 / Fold change vs veh, TMEM33 / RFU, WDR75 / Fold change vs veh, WDR75 / RFU, AHCTF1 / Fold change vs veh, AHCTF1 / RFU, TFRC / Fold change vs veh, TFRC / RFU, ZDHHC17 / Fold change vs veh, ZDHHC17 / RFU, NOM1 / Fold change vs veh, NOM1 / RFU, ARL8B / Fold change vs veh, ARL8B / RFU, ZBTB11 / Fold change vs veh, ZBTB11 / RFU, TAMM41 / Fold change vs veh, TAMM41 / RFU, KIAA1704 /// LOC100996395 / Fold change vs veh, KIAA1704 /// LOC100996395 / RFU, ING1 / Fold change vs veh, ING1 / RFU, TRMT61B / Fold change vs veh, TRMT61B / RFU, FUBP3 / Fold change vs veh, FUBP3 / RFU, TP53 / Fold change vs veh, TP53 / RFU, TNKS2 / Fold change vs veh, TNKS2 / RFU, ZFP14 / Fold change vs veh, ZFP14 / RFU, ACTR2 / Fold change vs veh, ACTR2 / RFU, PPP3R1 / Fold change vs veh, PPP3R1 / RFU, PIK3R1 / Fold change vs veh, PIK3R1 / RFU, HNRNPA1 / Fold change vs veh, HNRNPA1 / RFU, RNF170 / Fold change vs veh, RNF170 / RFU, ZNF28 / Fold change vs veh, ZNF28 / RFU, RNGTT / Fold change vs veh, RNGTT / RFU, OGT / Fold change vs veh, OGT / RFU, BRD1 / Fold change vs veh, BRD1 / RFU, MARS / Fold change vs veh, MARS / RFU, ZNF655 / Fold change vs veh, ZNF655 / RFU, FAHD1 / Fold change vs veh, FAHD1 / RFU, BDP1 / Fold change vs veh, BDP1 / RFU, LRRCC1 / Fold change vs veh, LRRCC1 / RFU, ARID1A / Fold change vs veh, ARID1A / RFU, ZNF146 / Fold change vs veh, ZNF146 / RFU, ZNF330 / Fold change vs veh, ZNF330 / RFU, GPN3 / Fold change vs veh, GPN3 / RFU, C9orf123 / Fold change vs veh, C9orf123 / RFU, N4BP2L2 / Fold change vs veh, N4BP2L2 / RFU, ARFIP1 / Fold change vs veh, ARFIP1 / RFU, FAM179B / Fold change vs veh, FAM179B / RFU, BCL10 / Fold change vs veh, BCL10 / RFU, UHRF1BP1L / Fold change vs veh, UHRF1BP1L / RFU, BET1 / Fold change vs veh, BET1 / RFU, CNOT2 / Fold change vs veh, CNOT2 / RFU, ZNF268 / Fold change vs veh, ZNF268 / Fold change vs veh, ZNF507 / RFU, DGCR2 / Fold change vs veh, DGCR2 / RFU, WDSUB1 / Fold change vs veh, WDSUB1 / Fold change vs veh, HSP90B1 /// MIR3652 / RFU, ADSS / Fold change vs veh, ADSS / RFU, GK / Fold change vs veh, GK / RFU, ZNF148 / Fold change vs veh, ZNF148 / RFU, TAF9 / Fold change vs veh, TAF9 / RFU, SLC1A5 / Fold change vs veh, SLC1A5 / RFU, SLMO2 / Fold change vs veh, SLMO2 / RFU, ABCC4 / Fold change vs veh, ABCC4 / RFU, LOC101060439 /// RAP1B / Fold change vs veh, LOC101060439 /// RAP1B / RFU, RFX7 / Fold change vs veh, RFX7 / RFU, GTPBP10 / Fold change vs veh, GTPBP10 / RFU, CNEP1R1 / Fold change vs veh, CNEP1R1 / RFU, BIVM-ERCC5 /// ERCC5 / Fold change vs veh, BIVM-ERCC5 /// ERCC5 / RFU, ILF3 / Fold change vs veh, ILF3 / RFU 11762660_at / Fold change /veh 11762660_at / RFU VCAN (11757783_s_at) / Fold change /veh VCAN (11757783_s_at) / RFU DDX43 (11728927_at) / Fold change /veh DDX43 (11728927_at) / RFU KRT8 (11758188_x_at) / Fold change /veh KRT8 (11758188_x_at) / RFU NKD1 (11759106_at) / Fold change /veh NKD1 (11759106_at) / RFU SRD5A1 (11742802_a_at) / Fold change /veh SRD5A1 (11742802_a_at) / RFU TPSAB1 /// TPSB2 (11721975_s_at) / Fold change /veh TPSAB1 /// TPSB2 (11721975_s_at) / RFU GSTM3 (11746129_a_at) / Fold change /veh GSTM3 (11746129_a_at) / RFU IL23R (11737362_x_at) / Fold change /veh IL23R (11737362_x_at) / RFU TMEM51 (11727254_a_at) / Fold change /veh TMEM51 (11727254_a_at) / RFU PIWIL2 (11732686_x_at) / Fold change /veh PIWIL2 (11732686_x_at) / RFU ORM1 (11744905_x_at) / Fold change /veh ORM1 (11744905_x_at) / RFU CCDC152 (11743942_at) / Fold change /veh CCDC152 (11743942_at) / RFU ECM1 (11717891_a_at) / Fold change /veh ECM1 (11717891_a_at) / RFU IL23R (11748794_a_at) / Fold change /veh IL23R (11748794_a_at) / RFU TNFAIP8L3 (11732012_x_at) / Fold change /veh TNFAIP8L3 (11732012_x_at) / RFU MBOAT4 (11741988_at) / Fold change /veh MBOAT4 (11741988_at) / RFU 11764193_at / Fold change /veh 11764193_at / RFU TMEM53 (11763286_at) / Fold change /veh TMEM53 (11763286_at) / RFU MAGEB2 (11727129_at) / Fold change /veh MAGEB2 (11727129_at) / RFU TMEM200A (11744735_a_at) / Fold change /veh TMEM200A (11744735_a_at) / RFU CCDC152 (11751479_a_at) / Fold change /veh CCDC152 (11751479_a_at) / RFU FAM211A (11726209_a_at) / Fold change /veh FAM211A (11726209_a_at) / RFU RGS16 (11746705_a_at) / Fold change /veh RGS16 (11746705_a_at) / RFU VCAN (11755009_s_at) / Fold change /veh VCAN (11755009_s_at) / RFU RHOB (11743442_s_at) / Fold change /veh RHOB (11743442_s_at) / RFU RGS16 (11720943_a_at) / Fold change /veh RGS16 (11720943_a_at) / RFU RGS16 (11720944_at) / Fold change /veh RGS16 (11720944_at) / RFU, VPS4B / Fold change vs veh, VPS4B / RFU, CREB1 / Fold change vs veh, CREB1 / RFU, DNAJC13 / Fold change vs veh, DNAJC13 / RFU, GNAQ / Fold change vs veh, GNAQ / RFU, CDK5R1 / Fold change vs veh, CDK5R1 / RFU, ZRANB3 / Fold change vs veh, ZRANB3 / RFU, CUL4A / Fold change vs veh, CUL4A / RFU, CCNY / Fold change vs veh, CCNY / RFU, UFL1 / Fold change vs veh, UFL1 / RFU, COG3 / Fold change vs veh, COG3 / RFU, DIAPH2 / Fold change vs veh, DIAPH2 / RFU, SKA2 / Fold change vs veh, SKA2 / RFU, AFF3 / Fold change vs veh, AFF3 / RFU, LMF1 / Fold change vs veh, LMF1 / RFU, IPO11 / Fold change vs veh, IPO11 / RFU, DFFB / Fold change vs veh, DFFB / RFU, FOXP1 / Fold change vs veh, FOXP1 / RFU, CARD8 / Fold change vs veh, CARD8 / RFU, STRN3 / Fold change vs veh, STRN3 / RFU, ADK / Fold change vs veh, ADK / RFU, RASSF2 / Fold change vs veh, RASSF2 / RFU, WIPF1 / Fold change vs veh, WIPF1 / RFU, LARP1B / Fold change vs veh, LARP1B / RFU, RASA1 / Fold change vs veh, RASA1 / RFU, RB1 / Fold change vs veh, RB1 / RFU, PPFIA1 / Fold change vs veh, PPFIA1 / RFU, MAT2A / Fold change vs veh, MAT2A / RFU, CCT5 / Fold change vs veh, CCT5 / RFU, WDR92 / Fold change vs veh, WDR92 / RFU, CUX1 / Fold change vs veh, CUX1 / RFU, TTC7A / Fold change vs veh, TTC7A / RFU, TMEM135 / Fold change vs veh, TMEM135 / RFU, DEPTOR / Fold change vs veh, DEPTOR / RFU, CPM / Fold change vs veh, CPM / RFU, DNAJB6 / Fold change vs veh, DNAJB6 / RFU, CACNA2D3 / Fold change vs veh, CACNA2D3 / RFU, DTX4 / Fold change vs veh, DTX4 / RFU, TFCP2 / Fold change vs veh, TFCP2 / RFU, GMCL1 /// GMCL1P1 / Fold change vs veh, GMCL1 /// GMCL1P1 / RFU, AEBP2 / Fold change vs veh, AEBP2 / RFU, SNHG1 /// SNORD22 /// SNORD25 /// SNORD26 /// SNORD27 /// SNORD28 /// SNORD29 /// SNORD31 / Fold change vs veh, SNHG1 /// SNORD22 /// SNORD25 /// SNORD26 /// SNORD27 /// SNORD28 /// SNORD29 /// SNORD31 / Fold change (Aza/veh), C12orf56 (ProbeSet 11735607_a_at) / Fold change (ACY-1035/veh), C12orf56 (ProbeSet 11735607_a_at) / Fold change (Aza/veh), FGFR1OP (ProbeSet 11751329_s_at) / Fold change (ACY-1035/veh), FGFR1OP (ProbeSet 11751329_s_at) / Fold change (Aza/veh), VPS36 (ProbeSet 11739960_a_at) / Fold change (ACY-1035/veh), VPS36 (ProbeSet 11739960_a_at) / RFU SYPL1 (11715823_x_at) / Fold change /veh SYPL1 (11715823_x_at) / RFU IGFBP7 (11715501_s_at) / Fold change /veh IGFBP7 (11715501_s_at) / RFU REEP3 (11722064_at) / Fold change /veh REEP3 (11722064_at) / RFU IGLL1 (11728026_x_at) / Fold change /veh IGLL1 (11728026_x_at): dose or concentration left out as unconfirmed
# Conditions: ProbeSet 11755159_a_at; LIST D
compound,measurement,value
Nc1ncn([C@@H]2O[C@H](CO)[C@@H](O)[C@H]2O)c(=O)n1 [azacitidine],"RFU, COG3",74.05 RFU
